Results as given in US7781590B2, “Piperidinylalkylcarbamate derivatives, methods for their preparation and the therapeutic use thereof as fatty acid amido hydrolase enzyme inhibitors” (Sanofi-Aventis, priority 2004, dated 2010).
Counter-ions that a name gives are not always drawn.

For `CNC(=O)COC(=O)NCCC1CCN(Cc2cccc(C(F)(F)F)c2)CC1` [Compound 13, 2-(methylamino)-2-oxoethyl 2-(1-{[3-(trifluoromethyl)phenyl]methyl}piperidin-4-yl)ethylcarbamate], the melting point was 90 to 92 °C. For `CNC(=O)COC(=O)NCCC1CCN(C(C)c2cccc(OC(F)(F)F)c2)CC1` (stereo not drawn) (as salt: HCl) [Compound 110, 2-(methylamino)-2-oxoethyl 2-(1-{1-[3-(trifluoromethoxy)phenyl]ethyl}piperidin-4-yl)ethylcarbamate], the melting point was 169 to 171 °C. For `CNC(=O)COC(=O)NCCC1CCN(Cc2ccc(Cl)c(Cl)c2)CC1` [Compound 20, 2-(methylamino)-2-oxoethyl 2-{1-[(3,4-dichlorophenyl)methyl]piperidin-4-yl}ethylcarbamate], the melting point was 101 to 105 °C. Compound `CNC(=O)COC(=O)NCCC1CCN(Cc2ccc(OC(F)(F)F)cc2)CC1` [Compound 16, 2-(methylamino)-2-oxoethyl 2-{1-[4-(trifluoromethoxy)benzyl]piperidin-4-yl}ethylcarbamate] has a melting point of 109 to 111 °C. For `CNC(=O)COC(=O)NCCC1CCN(Cc2cc(-c3ccc(Cl)cc3)no2)CC1` [Compound 104, 2-(methylamino)-2-oxoethyl 2-(1-{[3-(4-chlorophenyl)isoxazol-5-yl]methyl}piperidin-4-yl)ethylcarbamate], the melting point was 169 to 171 °C. Compound `CNC(=O)COC(=O)NCC1CCN(CCc2ccc(F)cc2OC)CC1` [Compound 52] has a melting point of 126 to 128 °C. With `CNC(=O)COC(=O)NCCC1CCN(Cc2ccc(Cl)cc2Cl)CC1` [Compound 18, 2-(methylamino)-2-oxoethyl 2-[1-(2,4-dichlorobenzyl)piperidin-4-yl]ethylcarbamate] the melting point was 117 to 119 °C. Compound `CNC(=O)COC(=O)NCCC1CCN(CCc2c(F)cccc2Cl)CC1` [Compound 60, 2-(methylamino)-2-oxoethyl 2-{1-[2-(2-chloro-6-fluorophenyl)ethyl]piperidin-4-yl}ethylcarbamate] has a melting point of 88 to 90 °C. With `CNC(=O)COC(=O)NCCC1CCN(Cc2cccc(Cl)c2F)CC1` [Compound 23, 2-(methylamino)-2-oxoethyl 2-[1-(3-chloro-2-fluorobenzyl)piperidin-4-yl]ethylcarbamate] the melting point was 104 to 106 °C. Work on `CNC(=O)COC(=O)NCCC1CCN(Cc2ccc(C(F)(F)F)cc2)CC1` [Compound 14, 2-(methylamino)-2-oxoethyl 2-(1-{[4-(trifluoromethyl)phenyl]methyl}piperidin-4-yl)ethylcarbamate] yielded a melting point of 116 to 120 °C. In the case of `CNC(=O)COC(=O)NCCC1CCN(Cc2ccc(Br)cc2)CC1` [Compound 12, 2-(methylamino)-2-oxoethyl 2-{1-[(4-bromophenyl)methyl]piperidin-4-yl}ethylcarbamate], the melting point is reported as 107 to 111 °C. Work on `CNC(=O)COC(=O)NCCC1CCN(Cc2ccccn2)CC1` [Compound 31, 2-(methylamino)-2-oxoethyl 2-[1-(pyridin-2-ylmethyl)piperidin-4-yl]ethylcarbamate] yielded a melting point of 104 to 106 °C. With `CNC(=O)COC(=O)NCCC1CCN(Cc2cccc3ccccc23)CC1` [Compound 29, 2-(methylamino)-2-oxoethyl 2-[1-(naphthalen-1-ylmethyl)piperidin-4-yl]ethylcarbamate] the melting point was 86 to 88 °C. `CNC(=O)COC(=O)NCCC1CCN(Cc2cc(Cl)cc(Cl)c2)CC1` [Compound 21, 2-(methylamino)-2-oxoethyl 2-[1-(3,5-dichlorobenzyl)piperidin-4-yl]ethylcarbamate] gave a melting point of 124 to 126 °C. `CNC(=O)COC(=O)NCCC1CCN(Cc2ncc(-c3ccc(Cl)cc3)o2)CC1` [Compound 105, 2-(methylamino)-2-oxoethyl 2-(1-{[5-(4-chlorophenyl)-1,3-oxazol-2-yl]methyl}piperidin-4-yl)ethylcarbamate] showed a melting point of 124 to 126 °C. Work on `CNC(=O)COC(=O)NCCC1CCN(CCc2cc(-c3ccc(Cl)cc3)no2)CC1` [Compound 120, 2-(methylamino)-2-oxoethyl 2-(1-{2-[3-(4-chlorophenyl)isoxazol-5-yl]ethyl}piperidin-4-yl)ethylcarbamate] yielded a melting point of 135 to 137 °C. Work on `CNC(=O)COC(=O)NC1CCN(CCOc2ccc(Cl)cc2Cl)CC1` [Compound 68] yielded a melting point of 115 to 119 °C. Work on `CNC(=O)COC(=O)NCCC1CCN(Cc2nc(-c3ccc(C(F)(F)F)cc3)cs2)CC1` [Compound 106, 2-(methylamino)-2-oxoethyl 2-[1-({4-[4-(trifluoromethyl)phenyl]-1,3-thiazol-2-yl}methyl)piperidin-4-yl]ethylcarbamate] yielded a melting point of 161 to 163 °C. `CNC(=O)COC(=O)NCCC1CCN(Cc2cccc(OC(C)(C)C)c2)CC1` [Compound 122, 2-(methylamino)-2-oxoethyl 2-[1-(3-tert-butoxybenzyl)piperidin-4-yl]ethylcarbamate] gave a melting point of 66 to 70 °C. `CNC(=O)COC(=O)NCCC1CCN(CCCc2ccc(OC)cc2)CC1` (as salt: HCl) [Compound 64, 2-(methylamino)-2-oxoethyl 2-(1-{3-[4-(methyloxy)phenyl]propyl}piperidin-4-yl)ethylcarbamate] gave a melting point of 118 to 120 °C. `CNC(=O)COC(=O)NCCC1CCN(Cc2ccc(F)cc2Cl)CC1` [Compound 100, 2-(methylamino)-2-oxoethyl 2-[1-(2-chloro-4-fluorobenzyl)piperidin-4-yl]ethylcarbamate] gave a melting point of 108 to 110 °C. `CNC(=O)COC(=O)NCCC1CCN(Cc2cc(C)cc(Cl)c2)CC1` [Compound 24, 2-(methylamino)-2-oxoethyl 2-[1-(3-chloro-5-methylbenzyl)piperidin-4-yl]ethylcarbamate] gave a melting point of 79 to 81 °C. Compound `CNC(=O)COC(=O)NCCC1CCN(Cc2cc(F)cc(C#N)c2)CC1` [Compound 102, 2-(methylamino)-2-oxoethyl 2-[1-(3-cyano-5-fluorobenzyl)piperidin-4-yl]ethylcarbamate] has a melting point of 132 to 134 °C. In the case of `CCOc1ccc(CCN2CCC(CCNC(=O)OCC(=O)NC)CC2)cc1` [Compound 59, 2-(methylamino)-2-oxoethyl 2-(1-{2-[4-(ethyloxy)phenyl]ethyl}piperidin-4-yl)ethylcarbamate], the melting point is reported as 118 to 120 °C. In the case of `CNC(=O)COC(=O)NCCC1CCN(Cc2ccc(-c3ccc(F)cc3)cc2Cl)CC1` [Compound 27, 2-(methylamino)-2-oxoethyl 2-{1-[(3-chloro-4′-fluorobiphenyl-4-yl)methyl]piperidin-4-yl}ethylcarbamate], the melting point is reported as 98 to 102 °C. For `CNC(=O)COC(=O)NCCC1CCN(Cc2ccc(Oc3ccc(Cl)c(F)c3)cc2)CC1` [Compound 28, 2-(methylamino)-2-oxoethyl 2-{1-[4-(4-chloro-3-fluorophenoxy)benzyl]piperidin-4-yl}ethylcarbamate], the melting point was 109 to 111 °C. Compound `CNC(=O)COC(=O)NCCC1CCN(CCOc2ccc(F)cc2)CC1` [Compound 83, 2-(methylamino)-2-oxoethyl 2-(1-{2-[(4-fluorophenyl)oxy]ethyl}piperidin-4-yl)ethylcarbamate] has a melting point of 125 to 129 °C. Work on `CNC(=O)COC(=O)NCCC1CCN(Cc2cc(F)ccc2Cl)CC1` [Compound 22, 2-(methylamino)-2-oxoethyl 2-[1-(2-chloro-5-fluorobenzyl)piperidin-4-yl]ethylcarbamate] yielded a melting point of 102 to 104 °C. With `CNC(=O)COC(=O)NCCC1CCN(Cc2ccc3ccccc3c2)CC1` [Compound 30, 2-(methylamino)-2-oxoethyl 2-[1-(naphthalen-2-ylmethyl)piperidin-4-yl]ethylcarbamate] the melting point was 87 to 93 °C. Work on `CNC(=O)COC(=O)NCCC1CCN(CCOc2ccc(Cl)cc2)CC1` [Compound 84, 2-(methylamino)-2-oxoethyl 2-(1-{2-[(4-chlorophenyl)oxy]ethyl}piperidin-4-yl)ethylcarbamate] yielded a melting point of 109 to 113 °C. For `CNC(=O)COC(=O)NCCC1CCN(Cc2cccc(Cl)c2Cl)CC1` [Compound 17, 2-(methylamino)-2-oxoethyl 2-{1-[(2,3-dichlorophenyl)methyl]piperidin-4-yl}ethylcarbamate], the melting point was 114 to 116 °C. For `CNC(=O)COC(=O)NCCC1CCN(Cc2ccc(F)c(Cl)c2)CC1` [Compound 101, 2-(methylamino)-2-oxoethyl 2-[1-(3-chloro-4-fluorobenzyl)piperidin-4-yl]ethylcarbamate], the melting point was 112 to 114 °C. Compound `CNC(=O)COC(=O)NCCC1CCN(CCc2ccc(F)cc2)CC1` [Compound 58, 2-(methylamino)-2-oxoethyl 2-{1-[2-(4-fluorophenyl)ethyl]piperidin-4-yl}ethylcarbamate] has a melting point of 122 to 124 °C. In the case of `CNC(=O)COC(=O)NCCC1CCN(CCc2ccccc2Cl)CC1` (as salt: HCl) [Compound 57, 2-(methylamino)-2-oxoethyl 2-{1-[2-(2-chlorophenyl)ethyl]piperidin-4-yl}ethylcarbamate], the melting point is reported as 121 to 123 °C. `CNC(=O)COC(=O)NCCC1CCN(Cc2cc(Cl)ccc2Cl)CC1` [Compound 19, 2-(methylamino)-2-oxoethyl 2-[1-(2,5-dichlorobenzyl)piperidin-4-yl]ethylcarbamate] gave a melting point of 125 to 127 °C. For `CNC(=O)COC(=O)NCCC1CCN(Cc2cccc(Oc3ccc(F)cc3)c2)CC1` [Compound 103, 2-(methylamino)-2-oxoethyl 2-{1-[3-(4-fluorophenoxy)benzyl]piperidin-4-yl}ethylcarbamate], the melting point was 79 to 81 °C.
